In patent publication EP4700036A1, “GLYCOLIPID DERIVATIVE AS MINCLE LIGAND” (The University of Osaka, priority 2023, dated 2024):

Biological target: T1, bovine Mincle (Bos taurus, UniProt E1BHM0)
T1 construct: expressed in transfected cells
T1 sequence (E1BHM0 1-211): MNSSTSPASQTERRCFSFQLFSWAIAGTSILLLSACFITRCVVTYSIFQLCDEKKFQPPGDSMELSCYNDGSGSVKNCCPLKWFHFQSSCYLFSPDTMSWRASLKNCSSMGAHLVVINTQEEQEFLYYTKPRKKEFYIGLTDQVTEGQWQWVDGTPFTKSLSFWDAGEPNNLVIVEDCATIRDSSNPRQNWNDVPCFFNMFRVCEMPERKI
Assay: Mincle ligand activity, NFAT-GFP reporter cells expressing bovine Mincle
Type: cell-based
Conditions: 96-well plate, 0.03 to 3 nmol; Fig. 1 (right)
Procedure: Similarly, using NFAT-GFP reporter cells expressing bovine Mincle, prepared according to the method described in a literature (Yamasaki, S. et al, Nat Immunol 9, 1179-88(2008)), the ligand activity of HD-276 was evaluated on a 96-well plate. The doses of the test compounds (horizontal axis) were 0.03 to 3 (nmol) from the left to right.

CCCCCCc1ccc(O[C@@H]2O[C@@H](C)[C@H](O)[C@@H](OC)[C@H]2O[C@@H]2O[C@@H](C)[C@H](O[C@@H]3O[C@H](COC)[C@@H](O)[C@H](O)[C@H]3O)[C@@H](OC)[C@H]2OC)cc1 [HD-276]
Mincle ligand activity (reporter activity): confirmed to have Mincle ligand activity
